Results as given in patent US6355799B1, “Substituted benzene compounds, process for their preparation, and herbicidal and defoliant compositions containing them” (ISK Americas Incorporated, priority 1997, dated 2002).

Experiments:
Assay type in all cases: in vivo
[1] = tested on: upland rice (Oryza sp., var. Tebonnet, RICE); test: Pre-emerge test, crop safety; conditions: pre-emerge, 14 days after application, scale 0-100
Procedure, shortened: (§1)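 Rating: 0–100 visual injury, 14 DAA. Application: acetone, 187 l/ha, 15–1000 g ai/ha, flat-fan track sprayer with nozzle 40–45 cm above soil or canopy. Post-emerge runs used 0.25% v/v surfactant on 2–3 leaf plants.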

[2] = tested on: field corn (Zea mays L., var. Dekalb 535, CORN); test: Pre-emerge test, crop safety; conditions: pre-emerge, 14 days after application, scale 0-100
Procedure, shortened: as §1

[3] = tested on: redroot pigweed (Amaranthus retroflexus, AMARE); test: Post-emerge test, greenhouse herbicide activity screening; conditions: post-emerge, 14 days after application, rating scale 0-100
Procedure, shortened: (§2)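 Plants grown in 10 cm pots of sandy loam mix received acetone-dissolved compounds through a moving flat-fan nozzle. Doses ranged from 15 to 1000 g ai/ha. Pre-emerge pots were seeded one day earlier, post-emerge pots 8–21 days earlier. Fourteen days on, each pot was graded 0–100 for damage.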

[4] = tested on: green foxtail (Setaria viridis, SETVI); test: as above; conditions: post-emerge, 14 days after application, rating scale 0-100
Procedure, shortened: as §2

[5] = tested on: large crabgrass (Digitaria sanguinalis, DIGSA); test: as above; conditions: post-emerge, 14 days after application, rating scale 0-100
Procedure, shortened: as §2

[6] = tested on: lambsquarters (Chenopodium album, CHEAL); test: as above; conditions: post-emerge, 14 days after application, rating scale 0-100
Procedure, shortened: as §2

[7] = tested on: sicklepod (Cassia obtusifolia, CASOB); test: as above; conditions: post-emerge, 14 days after application, rating scale 0-100
Procedure, shortened: as §2

[8] = tested on: johnsongrass (Sorghum halepense, SORHA); test: as above; conditions: post-emerge, 14 days after application, rating scale 0-100
Procedure, shortened: as §2

[9] = tested on: ivyleaf morningglory (Ipomoea hederacea, IPOHE); test: as above; conditions: post-emerge, 14 days after application, rating scale 0-100
Procedure, shortened: as §2

[10] = tested on: velvetleaf (Abutilon theophrasti, ABUTH); test: as above; conditions: post-emerge, 14 days after application, rating scale 0-100
Procedure, shortened: as §2

[11] = tested on: common ragweed (Ambrosia artemisizfolia L., AMBEL); test: as above; conditions: post-emerge, 14 days after application, rating scale 0-100
Procedure, shortened: as §2

[12] = tested on: barnyardgrass (Echinochloa crus-galli, ECHCG); test: as above; conditions: post-emerge, 14 days after application, rating scale 0-100
Procedure, shortened: as §2

[13] = tested on: upland rice (Oryza sp., var. Tebonnet, RICE); test: Post-emerge test, crop safety; conditions: post-emerge, 14 days after application, rating scale 0-100
Procedure, shortened: (§3)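 Each test used a mechanized track sprayer delivering 187 l/ha of acetone solution at 15–1000 g ai/ha. Post-emerge foliage at 2–3 leaves was treated with added 0.25% v/v non-ionic surfactant and bottom-watered only. Injury was assessed on day 14, where 100 means total kill.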

[14] = tested on: field corn (Zea mays L., var. Dekalb 535, CORN); test: Post-emerge test, crop safety; conditions: post-emerge, 14 days after application, rating scale 0-100
Procedure, shortened: as §3

[15] = tested on: green foxtail (Setaria viridis, SETVI); test: Pre-emerge test, greenhouse herbicide activity screening; conditions: pre-emerge, 14 days after application, scale 0-100
Procedure, shortened: as §2

[16] = tested on: large crabgrass (Digitaria sanguinalis, DIGSA); test: as above; conditions: pre-emerge, 14 days after application, scale 0-100
Procedure, shortened: as §2

[17] = tested on: lambsquarters (Chenopodium album, CHEAL); test: as above; conditions: pre-emerge, 14 days after application, scale 0-100
Procedure, shortened: as §2

[18] = tested on: sicklepod (Cassia obtusifolia, CASOB); test: as above; conditions: pre-emerge, 14 days after application, scale 0-100
Procedure, shortened: as §2

[19] = tested on: johnsongrass (Sorghum halepense, SORHA); test: as above; conditions: pre-emerge, 14 days after application, scale 0-100
Procedure, shortened: as §2

[20] = tested on: ivyleaf morningglory (Ipomoea hederacea, IPOHE); test: as above; conditions: pre-emerge, 14 days after application, scale 0-100
Procedure, shortened: as §2

[21] = tested on: velvetleaf (Abutilon theophrasti, ABUTH); test: as above; conditions: pre-emerge, 14 days after application, scale 0-100
Procedure, shortened: as §2

[22] = tested on: barnyardgrass (Echinochloa crus-galli, ECHCG); test: as above; conditions: pre-emerge, 14 days after application, scale 0-100
Procedure, shortened: as §2

[23] = tested on: redroot pigweed (Amaranthus retroflexus, AMARE); test: as above; conditions: pre-emerge, 14 days after application, scale 0-100
Procedure, shortened: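 Compounds in acetone were track-sprayed at 15-1000 g ai/ha (187 l/ha) on sandy loam pots: pre-emerge one day after seeding, post-emerge at 2-3 leaf stage with 0.25% v/v non-ionic surfactant. Phytotoxicity was rated 14 days later on a 0 (no damage) to 100 (complete death) scale.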

COc1c(Cl)cc(F)c(-n2c(=O)cc(C(F)(F)F)n(C)c2=O)c1NC(=O)Cc1ccccc1 [2-151]
50: CASOB phytotoxicity rating ([7]; 250 g ai/ha) | ABUTH phytotoxicity rating ([10]; 250 g ai/ha)
100: IPOHE phytotoxicity rating ([9]; 250 g ai/ha) | phytotoxicity rating ABUTH ([21]; 250 g ai/ha)
80: phytotoxicity rating CHEAL ([17]; 250 g ai/ha)
30: phytotoxicity rating RICE (crop damage) ([1]; 250 g ai/ha) | phytotoxicity rating CORN (crop damage) ([2]; 250 g ai/ha) | IPOHE phytotoxicity rating ([9]; 63 g ai/ha) | AMBEL phytotoxicity rating ([11]; 250 g ai/ha) | phytotoxicity rating ABUTH ([21]; 63 g ai/ha)
0: phytotoxicity rating RICE (crop damage) ([1]; 63 g ai/ha) | phytotoxicity rating CORN (crop damage) ([2]; 63 g ai/ha) | SETVI phytotoxicity rating ([4]; 63 g ai/ha) | SETVI phytotoxicity rating ([4]; 250 g ai/ha) | DIGSA phytotoxicity rating ([5]; 63 g ai/ha) | DIGSA phytotoxicity rating ([5]; 250 g ai/ha) | SORHA phytotoxicity rating ([8]; 63 g ai/ha) | SORHA phytotoxicity rating ([8]; 250 g ai/ha) | ABUTH phytotoxicity rating ([10]; 63 g ai/ha) | ECHCG phytotoxicity rating ([12]; 63 g ai/ha) | ECHCG phytotoxicity rating ([12]; 250 g ai/ha) | RICE phytotoxicity rating (crop damage) ([13]; 63 g ai/ha) | CORN phytotoxicity rating (crop damage) ([14]; 63 g ai/ha) | CORN phytotoxicity rating (crop damage) ([14]; 250 g ai/ha) | phytotoxicity rating SETVI ([15]; 63 g ai/ha) | phytotoxicity rating SETVI ([15]; 250 g ai/ha) | phytotoxicity rating DIGSA ([16]; 63 g ai/ha) | phytotoxicity rating CHEAL ([17]; 63 g ai/ha) | phytotoxicity rating CASOB ([18]; 63 g ai/ha) | phytotoxicity rating SORHA ([19]; 63 g ai/ha) | phytotoxicity rating IPOHE ([20]; 63 g ai/ha) | phytotoxicity rating ECHCG ([22]; 63 g ai/ha) | phytotoxicity rating ECHCG ([22]; 250 g ai/ha) | phytotoxicity rating AMARE ([23]; 63 g ai/ha) | phytotoxicity rating AMARE ([23]; 250 g ai/ha)
40: phytotoxicity rating DIGSA ([16]; 250 g ai/ha) | phytotoxicity rating SORHA ([19]; 250 g ai/ha) | phytotoxicity rating IPOHE ([20]; 250 g ai/ha)
70: phytotoxicity rating CASOB ([18]; 250 g ai/ha)
20: AMARE phytotoxicity rating ([3]; 250 g ai/ha) | AMBEL phytotoxicity rating ([11]; 63 g ai/ha)
10: AMARE phytotoxicity rating ([3]; 63 g ai/ha) | CHEAL phytotoxicity rating ([6]; 63 g ai/ha) | CHEAL phytotoxicity rating ([6]; 250 g ai/ha) | CASOB phytotoxicity rating ([7]; 63 g ai/ha) | RICE phytotoxicity rating (crop damage) ([13]; 250 g ai/ha)
